Test results taken from patent EP4477653A1 (Perha Pharmaceuticals, priority 2023, dated 2024).

biological target: T1, human recombinant A3AR (expressed in HEK-293 cells) (Homo sapiens, UniProt P0DMS8); assay: Adenosine receptors antagonism assay (Eurofins), [125I]-AB-MECA radioligand competition; format: binding; conditions: [125I]-AB-MECA 0.15 nM, r.t., 120 min; IC50 from dose-response curves; read-out: Potency Class A3AR
T1 construct: host or cells: HEK-293 cells
T1 sequence (P0DMS8 1-318): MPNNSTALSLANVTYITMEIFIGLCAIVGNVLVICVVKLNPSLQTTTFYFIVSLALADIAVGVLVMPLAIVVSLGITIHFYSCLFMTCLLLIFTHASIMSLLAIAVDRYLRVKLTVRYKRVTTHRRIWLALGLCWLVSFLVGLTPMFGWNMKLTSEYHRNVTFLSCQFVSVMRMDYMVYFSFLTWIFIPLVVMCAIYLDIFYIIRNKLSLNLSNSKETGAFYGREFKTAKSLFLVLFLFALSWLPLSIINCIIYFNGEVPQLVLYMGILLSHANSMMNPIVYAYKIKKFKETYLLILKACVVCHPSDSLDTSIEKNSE
Protocol: Assays were carried out at r.t. for 120 min. Compounds were initially tested at three concentrations (0.01, 0.1, 1 µM). […] IC50 values, which is the concentration causing a half-maximal inhibition of control specific binding, and Hill coefficients (nH) were determined by non-linear regression analysis of the competition curves generated with mean replicate values using Hill equation curve fitting. The inhibition constants (Ki) were calculated using the Cheng Prusoff equation.

IC50 [nM]	SMILES
10 to 100	CC[C@H](CO)Nc1cc(Nc2ccccn2)c2nnc(C(C)C)n2n1 [compound 163, (2R)-2-[[3-isopropyl-8-(2-pyridylamino)-[1,2,4]triazolo[4,3-b]pyridazin-6-yl]amino]butan-1-ol]
1 to 10	CCC(CC)CNc1cc(NCCc2cccnc2)c2nnc(C(C)C)n2n1 [compound 166, N6-(2-ethylbutyl)-3-isopropyl-N8-[2-(3-pyridyl)ethyl]-[1,2,4]triazolo[4,3-b]pyridazine-6,8-diamine]
100 to 1000	c1ccc(CNc2cc(N[C@@H]3CCCOC3)nn3c(C4CC4)nnc23)nc1 [compound 214, (R)-3-cyclopropyl-N8-(pyridin-2-ylmethyl)-N6-(tetrahydro-2H-pyran-3-yl)-[1,2,4]triazolo[4,3-b]pyridazine-6,8-diamine]
10 to 100	CCC(CC)Nc1cc(Nc2cccnc2OC)c2nnc(C3CC3)n2n1 [compound 184, 3-cyclopropyl-N8-(2-methoxypyridin-3-yl)-N6-(pentan-3-yl)-[1,2,4]triazolo[4,3-b]pyridazine-6,8-diamine]
1 to 10	c1ccc(CNc2cc(NCc3cccs3)nn3c(C4CC4)nnc23)nc1 [compound 210, 3-cyclopropyl-N8-(pyridin-2-ylmethyl)-N6-(thiophen-2-ylmethyl)-[1,2,4]triazolo[4,3-b]pyridazine-6,8-diamine]
1 to 10	c1ccc(CNc2cc(NCc3ccccn3)c3nnc(C4CC4)n3n2)cc1 [compound 186, N6-benzyl-3-cyclopropyl-N8-(pyridin-2-ylmethyl)-[1,2,4]triazolo[4,3-b]pyridazine-6,8-diamine]
1 to 10	c1ccc(CNc2cc(NCc3ccoc3)nn3c(C4CC4)nnc23)nc1 [compound 209, 3-cyclopropyl-N6-(furan-3-ylmethyl)-N8-(pyridin-2-ylmethyl)-[1,2,4]triazolo[4,3-b]pyridazine-6,8-diamine]
1 to 10	c1ccc(CNc2cc(NC34CC5CC(CC(C5)C3)C4)nn3c(C4CC4)nnc23)nc1 [compound 202, N6-((3s,5s,7s)-adamantan-1-yl)-3-cyclopropyl-N8-(pyridin-2-ylmethyl)-[1,2,4]triazolo[4,3-b]pyridazine-6,8-diamine]
< 1	CCC(CC)Nc1cc(NCCc2cccnc2)c2nnc(C3CC3)n2n1 [compound 87, 3-cyclopropyl-N6-(1-ethylpropyl)-N8-[2-(3-pyridyl)ethyl]-[1,2,4]triazolo[4,3-b]pyridazine-6,8-diamine]
< 1	CCC(CC)Nc1cc(Nc2ccc(OC)nn2)c2nnc(C3CC3)n2n1 [compound 215, 3-cyclopropyl-N8-(6-methoxypyridazin-3-yl)-N6-(pentan-3-yl)-[1,2,4]triazolo[4,3-b]pyridazine-6,8-diamine]
< 1	CCC(CC)Nc1cc(Nc2ccc(OC)nc2)c2nnc(C(C)C)n2n1 [compound 159, 3-isopropyl-N8-(6-methoxypyridin-3-yl)-N6-(pentan-3-yl)-[1,2,4]triazolo[4,3-b]pyridazine-6,8-diamine]
10 to 100	CC[C@H](CO)Nc1cc(NCc2ccccn2)c2nnc(C3CC3)n2n1 [compound 211, (R)-2-((3-cyclopropyl-8-((pyridin-2-ylmethyl)amino)-[1,2,4]triazolo[4,3-b]pyridazin-6-yl)amino)butan-1-ol]
< 1	CCC(CC)Nc1cc(Nc2ccncc2)c2nnc(C3CC3)n2n1 [compound 174, 3-cyclopropyl-N6-(1-ethylpropyl)-N8-(4-pyridyl)-[1,2,4]triazolo[4,3-b]pyridazine-6,8-diamine]
1 to 10	c1ccc(CNc2cc(NC3CC4(CCC4)C3)nn3c(C4CC4)nnc23)nc1 [compound 205, 3-cyclopropyl-N8-(pyridin-2-ylmethyl)-N6-(spiro[3.3]heptan-2-yl)-[1,2,4]triazolo[4,3-b]pyridazine-6,8-diamine]
10 to 100	c1ccc(CNc2cc(NC3CC3)nn3c(C4CC4)nnc23)nc1 [compound 197, N6,3-dicyclopropyl-N8-(pyridin-2-ylmethyl)-[1,2,4]triazolo[4,3-b]pyridazine-6,8-diamine]
< 1	CCC(CC)Nc1cc(Nc2ccccn2)c2nnc(C3CC3)n2n1 [compound 172, 3-cyclopropyl-N6-(1-ethylpropyl)-N8-(2-pyridyl)-[1,2,4]triazolo[4,3-b]pyridazine-6,8-diamine]
10 to 100	CCC(CC)Nc1cc(NCc2ncccn2)c2nnc(C(C)C)n2n1 [compound 92, N6-(1-ethylpropyl)-3-isopropyl-N8-(pyrimidin-2-ylmethyl)-[1,2,4]triazolo[4,3-b]pyridazine-6,8-diamine]
1 to 10	CC(C)c1nnc2c(NCCc3ccccn3)cc(NC3CCCC3)nn12 [compound 165, N6-cyclopentyl-3-isopropyl-N8-[2-(2-pyridyl)ethyl]-[1,2,4]triazolo[4,3-b]pyridazine-6,8-diamine]
1 to 10	CCC(CC)Nc1cc(Nc2ccnnc2)c2nnc(C3CC3)n2n1 [compound 176, 3-cyclopropyl-N6-(pentan-3-yl)-N8-(pyridazin-4-yl)-[1,2,4]triazolo[4,3-b]pyridazine-6,8-diamine]
< 1	CCC(CC)Nc1cc(Nc2cncnc2)c2nnc(C3CC3)n2n1 [compound 178, 3-cyclopropyl-N6-(1-ethylpropyl)-N8-pyrimidin-5-yl-[1,2,4]triazolo[4,3-b]pyridazine-6,8-diamine]
< 1	CCC(CC)Nc1cc(Nc2cnccn2)c2nnc(C3CC3)n2n1 [compound 180, 3-cyclopropyl-N6-(pentan-3-yl)-N8-(pyrazin-2-yl)-[1,2,4]triazolo[4,3-b]pyridazine-6,8-diamine]

Further lines, the compound ahead of its results:

SMILES	IC50 [nM]
CC[C@@H](CO)Nc1cc(NCc2ccccc2)c2nnc(C(C)C)n2n1 [compound 2, (2S)-2-[[8-(benzylamino)-3-isopropyl-[1,2,4]triazolo[4,3-b]pyridazin-6-yl]amino]butan-1-ol]	10 to 100
COCCCNc1cc(NCc2ccccc2O)c2nnc(C(C)C)n2n1 [compound 39, 2-[[[3-isopropyl-6-(3-methoxypropylamino)-[1,2,4]triazolo[4,3-b]pyridazin-8-yl]amino]methyl]phenol]	10 to 100
CCC(CC)Nc1cc(NCCc2ccncc2)c2nnc(C(C)C)n2n1 [compound 85, N6-(1-ethylpropyl)-3-isopropyl-N8-[2-(4-pyridyl)ethyl]-[1,2,4]triazolo[4,3-b]pyridazine-6,8-diamine]	1 to 10
CC(C)c1nnc2c(NCc3ccccn3)cc(NC3CCC(F)(F)CC3)nn12 [compound 55, N6-(4,4-difluorocyclohexyl)-3-isopropyl-N8-(2-pyridylmethyl)-[1,2,4]triazolo[4,3-b]pyridazine-6,8-diamine]	10 to 100
CCC(CC)Nc1cc(NCc2ccncc2)c2nnc(C(C)C)n2n1 [compound 49, N6-(1-ethylpropyl)-3-isopropyl-N8-(4-pyridylmethyl)-[1,2,4]triazolo[4,3-b]pyridazine-6,8-diamine]	1 to 10
CC[C@H](CO)Nc1cc(NCc2ccccc2)c2nnc(C(F)(F)F)n2n1 [compound 37, (2R)-2-[[8-(benzylamino)-3-(trifluoromethyl)-[1,2,4]triazolo[4,3-b]pyridazin-6-yl]amino]butan-1-ol]	10 to 100
CCC(CC)Nc1cc(NCc2ccccn2)c2nnc(C(CC)CC)n2n1 [compound 68, N6,3-bis(1-ethylpropyl)-N8-(2-pyridylmethyl)-[1,2,4]triazolo[4,3-b]pyridazine-6,8-diamine]	1 to 10
CC(C)c1nnc2c(NCc3ccccc3)cc(N3CCOCC3)nn12 [compound 6, N-benzyl-3-isopropyl-6-morpholino-[1,2,4]triazolo[4,3-b]pyridazin-8-amine]	100 to 1000
COCCCCCNc1cc(NCc2ccccc2)c2nnc(C(C)C)n2n1 [compound 16, N8-benzyl-3-isopropyl-N6-(5-methoxypentyl)-[1,2,4]triazolo[4,3-b]pyridazine-6,8-diamine]	100 to 1000
CCC(CC)Nc1cc(NCc2ccc(O)cc2)c2nnc(C(C)C)n2n1 [compound 42, 4-[[[6-(1-ethylpropylamino)-3-isopropyl-[1,2,4]triazolo[4,3-b]pyridazin-8-yl]amino]methyl]phenol]	1 to 10
CCC(CC)Nc1cc(Nc2ccccn2)c2nnc(C(C)C)n2n1 [compound 46, N6-(1-ethylpropyl)-3-isopropyl-N8-(2-pyridyl)-[1,2,4]triazolo[4,3-b]pyridazine-6,8-diamine]	< 1
CCC(CC)Nc1cc(NCc2ccccn2)c2nnc(-c3ccccc3)n2n1 [compound 66, N6-(1-ethylpropyl)-3-phenyl-N8-(2-pyridylmethyl)-[1,2,4]triazolo[4,3-b]pyridazine-6,8-diamine]	10 to 100
CCC(CC)Nc1cc(NCc2ccccc2OC)c2nnc(C(C)C)n2n1 [compound 73, N6-(1-ethylpropyl)-3-isopropyl-N8-[(2-methoxyphenyl)methyl]-[1,2,4]triazolo[4,3-b]pyridazine-6,8-diamine]	1 to 10
CCC(CC)Nc1cc(NCCc2cccnc2)c2nnc(C(C)C)n2n1 [compound 84, N6-(1-ethylpropyl)-3-isopropyl-N8-[2-(3-pyridyl)ethyl]-[1,2,4]triazolo[4,3-b]pyridazine-6,8-diamine]	1 to 10
CC(C)c1nnc2c(NCc3ccccc3)cc(N[C@H]3CCCOC3)nn12 [compound 22, N8-benzyl-3-isopropyl-N6-[(3S)-tetrahydropyran-3-yl]-[1,2,4]triazolo[4,3-b]pyridazine-6,8-diamine]	10 to 100
CCCc1nnc2c(NCc3ccccn3)cc(NC(CC)CC)nn12 [compound 60, N6-(1-ethylpropyl)-3-propyl-N8-(2-pyridylmethyl)-[1,2,4]triazolo[4,3-b]pyridazine-6,8-diamine]	10 to 100
